According to ChEMBL document CHEMBL1126058, “Development of potent and selective CCK-A receptor agonists from Boc-CCK-4: tetrapeptides containing Lys(N epsilon)-amide residues” (J Med Chem, 1992):
Where a SMILES comes first, the peptide text is derived from it. [ ]: non-standard residue; d: D form. The star is where a group is joined. Propanoyl(3-(4-MeO-Ph)) = COc1ccc(CCC(=O)*)cc1; Hydrocinnamoyl(4-Me) = Cc1ccc(CCC(=O)*)cc1; Dihydrocaffeoyl = O=C(CCc1ccc(O)c(O)c1)*; X28 = O=C(/C=C\c1cccc(OS(=O)(=O)O)c1)*; X35 = O=C(/C=C\c1ccc(OS(=O)(=O)O)cc1)*; Desaminotyrosyl = O=C(CCc1ccc(O)cc1)*; X20 = CC(=O)Oc1ccc2cc(C(=O)*)ccc2c1; X22 = O=C(CCc1cccc(OS(=O)(=O)O)c1)*; 1Naphthoyl = O=C(c1cccc2ccccc12)*; X26 = O=C(/C=C\c1ccc(Cl)c(Cl)c1)*; NMeF = CN[C@@H](Cc1ccccc1)C(=O)O; X10 = O=C(/C=C\c1ccc(Cl)cc1Cl)*; X31 = COc1ccc(/C=C\C(=O)*)cc1OC; X7 = CN(C)c1ccc(/C=C\C(=O)*)cc1; X8 = COc1ccc2[nH]c(C(=O)*)cc2c1; X1 = O=C(/C=C\c1ccc(O)c(O)c1)*; X12 = O=C(c1cnc2cccc(O)c2c1)*; X21 = O=C(/C=C\c1ccc(Br)cc1)*; X25 = COc1ccc(/C=C\C(=O)*)cc1; X33 = O=C(/C=C/c1ccc(Cl)cc1)*; X34 = O=C(/C=C\c1ccc(Cl)cc1)*; X18 = O=C(c1cc2ccccc2[nH]1)*; X32 = Cc1ccc(/C=C\C(=O)*)cc1; X16 = O=C(/C=C\c1ccccc1O)*; X27 = O=C(Cc1ccc(O)cc1)*; X5 = O=C(CCc1cccc(O)c1)*; Boc = CC(C)(C)OC(=O)*

Tests used:
[1] = molecular target: T1, Cholecystokinin receptor type A (Cavia porcellus, UniProt Q63931); assay: Inhibition of specific binding of [125I]BH-CCK-8 in guinea pig pancreas.
T1 sequence (Q63931 whole entry): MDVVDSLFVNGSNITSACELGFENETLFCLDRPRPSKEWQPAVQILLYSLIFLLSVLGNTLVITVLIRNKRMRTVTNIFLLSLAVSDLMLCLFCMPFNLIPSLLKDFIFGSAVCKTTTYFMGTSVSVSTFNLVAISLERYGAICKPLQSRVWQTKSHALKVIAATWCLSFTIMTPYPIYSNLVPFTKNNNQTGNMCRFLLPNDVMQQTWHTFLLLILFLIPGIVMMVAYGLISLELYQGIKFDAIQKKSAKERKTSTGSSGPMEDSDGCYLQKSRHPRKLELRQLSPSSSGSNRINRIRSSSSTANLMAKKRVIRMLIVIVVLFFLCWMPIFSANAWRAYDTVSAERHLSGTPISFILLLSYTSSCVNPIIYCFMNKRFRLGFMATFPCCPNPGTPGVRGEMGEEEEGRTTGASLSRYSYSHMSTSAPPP

[2] = species: Cavia porcellus; assay: Hydrolysis of phosphoinositide (PI) relative to maximal response elicited by CCK-8 in guinea pig pancreas.; assay type: functional
[3] = species: Cavia porcellus; assay: Stimulation of amylase release in guinea pig pancreas; assay type: functional

| Structure (SMILES) | IC50 [1] | Max [2] | EC50 [3] |
| --- | --- | --- | --- |
| CC(C)(C)OC(=O)N[C@@H](Cc1c[nH]c2ccccc12)C(=O)N[C@@H](CCCCNC(=O)CCc1cccc(O)c1)C(=O)N[C@@H](CC(=O)O)C(=O)N[C@@H](Cc1ccccc1)C(N)=O (Boc-WK(X5)DF-NH2) | 400 nM | 46% | 160 nM |
| CC(C)(C)OC(=O)N[C@@H](Cc1c[nH]c2ccccc12)C(=O)N[C@@H](CCCCNC(=O)CCc1cccc(OS(=O)(=O)O)c1)C(=O)N[C@@H](CC(=O)O)C(=O)N[C@@H](Cc1ccccc1)C(N)=O (Boc-WK(X22)DF-NH2) | 180 nM | 50% | 69 nM |
| CSCC[C@H](NC(=O)[C@H](Cc1c[nH]c2ccccc12)NC(=O)OC(C)(C)C)C(=O)N[C@@H](CC(=O)O)C(=O)N[C@@H](Cc1ccccc1)C(N)=O |  | 40% | 2600 nM |
| CC(C)(C)OC(=O)N[C@@H](Cc1c[nH]c2ccccc12)C(=O)N[C@@H](CCCCNC(=O)/C=C\c1ccc(OS(=O)(=O)O)cc1)C(=O)N[C@@H](CC(=O)O)C(=O)N[C@@H](Cc1ccccc1)C(N)=O (Boc-WK(X35)DF-NH2) |  | 72% | 7.2 nM |
| CC(C)(C)OC(=O)N[C@@H](Cc1c[nH]c2ccccc12)C(=O)N[C@@H](CCCCNC(=O)Cc1ccc(O)cc1)C(=O)N[C@@H](CC(=O)O)C(=O)N[C@@H](Cc1ccccc1)C(N)=O (Boc-WK(X27)DF-NH2) | 1100 nM | 88% | 30000 nM |
| CC(C)(C)OC(=O)N[C@@H](Cc1c[nH]c2ccccc12)C(=O)N[C@@H](CCCCNC(=O)c1cnc2cccc(O)c2c1)C(=O)N[C@@H](CC(=O)O)C(=O)N[C@@H](Cc1ccccc1)C(N)=O (Boc-WK(X12)DF-NH2) | 7.7 nM | 45% | 2.3 nM |
| CC(C)(C)OC(=O)N[C@@H](Cc1c[nH]c2ccccc12)C(=O)N[C@@H](CCCCNC(=O)/C=C\c1ccc(Br)cc1)C(=O)N[C@@H](CC(=O)O)C(=O)N[C@@H](Cc1ccccc1)C(N)=O (Boc-WK(X21)DF-NH2) | 140 nM | 72% | 38 nM |
| COc1ccc(/C=C\C(=O)NCCCC[C@H](NC(=O)[C@H](Cc2c[nH]c3ccccc23)NC(=O)OC(C)(C)C)C(=O)N[C@@H](CC(=O)O)C(=O)N[C@@H](Cc2ccccc2)C(N)=O)cc1 (Boc-WK(X25)DF-NH2) | 30 nM | 72% | 20 nM |
| CC(C)(C)OC(=O)N[C@@H](Cc1c[nH]c2ccccc12)C(=O)N[C@@H](CCCCNC(=O)/C=C\c1ccccc1O)C(=O)N[C@@H](CC(=O)O)C(=O)N[C@@H](Cc1ccccc1)C(N)=O (Boc-WK(X16)DF-NH2) | 110 nM | 54% | 210 nM |
| Cc1ccc(/C=C\C(=O)NCCCC[C@H](NC(=O)[C@H](Cc2c[nH]c3ccccc23)NC(=O)OC(C)(C)C)C(=O)N[C@@H](CC(=O)O)C(=O)N[C@@H](Cc2ccccc2)C(N)=O)cc1 (Boc-WK(X32)DF-NH2) | 71 nM | 71% | 52 nM |
| CC(C)(C)OC(=O)N[C@@H](Cc1c[nH]c2ccccc12)C(=O)N[C@@H](CCCCNC(=O)CCc1ccc(O)cc1)C(=O)N[C@@H](CC(=O)O)C(=O)N[C@@H](Cc1ccccc1)C(N)=O (Boc-WK(Desaminotyrosyl)DF-NH2) | 120 nM | 77% | 92 nM |
| COc1ccc(CCC(=O)NCCCC[C@H](NC(=O)[C@H](Cc2c[nH]c3ccccc23)NC(=O)OC(C)(C)C)C(=O)N[C@@H](CC(=O)O)C(=O)N[C@@H](Cc2ccccc2)C(N)=O)cc1 (Boc-WK(Propanoyl(3-(4-MeO-Ph)))DF-NH2) | 140 nM | 70% | 74 nM |
| CC(C)(C)OC(=O)N[C@@H](Cc1c[nH]c2ccccc12)C(=O)N[C@@H](CCCCNC(=O)CCc1ccc(O)c(O)c1)C(=O)N[C@@H](CC(=O)O)C(=O)N[C@@H](Cc1ccccc1)C(N)=O (Boc-WK(Dihydrocaffeoyl)DF-NH2) | 160 nM | 44% | 300 nM |
| CN(C)c1ccc(/C=C\C(=O)NCCCC[C@H](NC(=O)[C@H](Cc2c[nH]c3ccccc23)NC(=O)OC(C)(C)C)C(=O)N[C@@H](CC(=O)O)C(=O)N[C@@H](Cc2ccccc2)C(N)=O)cc1 (Boc-WK(X7)DF-NH2) | 120 nM | 49% | 17 nM |
| CC(C)(C)OC(=O)N[C@@H](Cc1c[nH]c2ccccc12)C(=O)N[C@@H](CCCCNC(=O)/C=C\c1ccc(O)c(O)c1)C(=O)N[C@@H](CC(=O)O)C(=O)N[C@@H](Cc1ccccc1)C(N)=O (Boc-WK(X1)DF-NH2) | 33 nM | 66% | 45 nM |
| CC(C)(C)OC(=O)N[C@@H](Cc1c[nH]c2ccccc12)C(=O)N[C@@H](CCCCNC(=O)c1cccc2ccccc12)C(=O)N[C@@H](CC(=O)O)C(=O)N[C@@H](Cc1ccccc1)C(N)=O (Boc-WK(1Naphthoyl)DF-NH2) | 57 nM | 61% | 79 nM |
| CC(C)(C)OC(=O)N[C@@H](Cc1c[nH]c2ccccc12)C(=O)N[C@@H](CCCCNC(=O)/C=C\c1ccc(Cl)cc1Cl)C(=O)N[C@@H](CC(=O)O)C(=O)N[C@@H](Cc1ccccc1)C(N)=O (Boc-WK(X10)DF-NH2) | 130 nM | 86% | 90 nM |
| CC(C)(C)OC(=O)N[C@@H](Cc1c[nH]c2ccccc12)C(=O)N[C@@H](CCCCNC(=O)/C=C\c1ccc(Cl)cc1)C(=O)N[C@@H](CC(=O)O)C(=O)N[C@@H](Cc1ccccc1)C(N)=O (Boc-WK(X34)DF-NH2) |  | 66% | 79 nM |
| COc1ccc(/C=C\C(=O)NCCCC[C@H](NC(=O)[C@H](Cc2c[nH]c3ccccc23)NC(=O)OC(C)(C)C)C(=O)N[C@@H](CC(=O)O)C(=O)N[C@@H](Cc2ccccc2)C(N)=O)cc1OC (Boc-WK(X31)DF-NH2) | 40 nM | 61% | 17 nM |
| CC(C)(C)OC(=O)N[C@@H](Cc1c[nH]c2ccccc12)C(=O)N[C@@H](CCCCNC(=O)c1cc2ccccc2[nH]1)C(=O)N[C@@H](CC(=O)O)C(=O)N[C@@H](Cc1ccccc1)C(N)=O (Boc-WK(X18)DF-NH2) | 39 nM | 18% | 20 nM |
| CC(C)(C)OC(=O)N[C@@H](Cc1c[nH]c2ccccc12)C(=O)N[C@@H](CCCCNC(=O)/C=C\c1cccc(OS(=O)(=O)O)c1)C(=O)N[C@@H](CC(=O)O)C(=O)N[C@@H](Cc1ccccc1)C(N)=O (Boc-WK(X28)DF-NH2) | 39 nM | 70% | 25 nM |
| CC(=O)Oc1ccc2cc(C(=O)NCCCC[C@H](NC(=O)[C@H](Cc3c[nH]c4ccccc34)NC(=O)OC(C)(C)C)C(=O)N[C@@H](CC(=O)O)C(=O)N[C@@H](Cc3ccccc3)C(N)=O)ccc2c1 (Boc-WK(X20)DF-NH2) | 8 nM | 49% | 11 nM |
| COc1ccc2[nH]c(C(=O)NCCCC[C@H](NC(=O)[C@H](Cc3c[nH]c4ccccc34)NC(=O)OC(C)(C)C)C(=O)N[C@@H](CC(=O)O)C(=O)N[C@@H](Cc3ccccc3)C(N)=O)cc2c1 (Boc-WK(X8)DF-NH2) | 52 nM | 21% | 16 nM |
| CC(C)(C)OC(=O)N[C@@H](Cc1c[nH]c2ccccc12)C(=O)N[C@@H](CCCCNC(=O)/C=C\c1ccc(Cl)c(Cl)c1)C(=O)N[C@@H](CC(=O)O)C(=O)N[C@@H](Cc1ccccc1)C(N)=O (Boc-WK(X26)DF-NH2) | 49 nM | 62% | 46 nM |
| CN(C(=O)[C@H](CC(=O)O)NC(=O)[C@H](CCCCNC(=O)/C=C/c1ccc(Cl)cc1)NC(=O)[C@H](Cc1c[nH]c2ccccc12)NC(=O)OC(C)(C)C)[C@@H](Cc1ccccc1)C(N)=O (Boc-WK(X33)D[NMeF]-NH2) | 15 nM | 68% | 8.6 nM |
| CC(=O)Oc1ccc2cc(C(=O)NCCCC[C@H](NC(=O)[C@H](Cc3c[nH]c4ccccc34)NC(=O)OC(C)(C)C)C(=O)N[C@@H](CC(=O)O)C(=O)N(C)[C@@H](Cc3ccccc3)C(N)=O)ccc2c1 (Boc-WK(X20)D[NMeF]-NH2) | 3.4 nM | 58% | 29 nM |
| Cc1ccc(CCC(=O)NCCCC[C@H](NC(=O)[C@H](Cc2c[nH]c3ccccc23)NC(=O)OC(C)(C)C)C(=O)N[C@@H](CC(=O)O)C(=O)N[C@@H](Cc2ccccc2)C(N)=O)cc1 (Boc-WK(Hydrocinnamoyl(4-Me))DF-NH2) | 290 nM | 62% | 240 nM |
